Experiments:
Type in all cases: physicochemical
[1] = Visually observed gelation time / physical state of peptide and peptide:GAG samples; conditions: for Time to gel: peptide concentration = 20 mg/ml, typical gelation times
Protocol: Therefore the GAGs must be directly interacting with the peptides via physical bonds to enhance their gelation.
c.) 200 P11-12 1-9 days Wavenumbers (cm-1) Wavenumbers (cm-1) […]
Figure S1. […]
Peptide GAG ratio Time to gel ( peptide concentration = 20 mg/ml)
P11-4 1:2 Seconds-minutes
Table S1. Typical gelation times in 20mg/ml samples
(also on this page, place not known: (cm -1 ) (cm -1 ) (cm -1 ) Estimated monomer (µM) Aromatic 0 / µM Apparent critical relative integral 0.125 mM TMSP concentration to concentration Seconds-minutesP11-4 SecondsP11-8 SecondsP11-9 P11-12) […]
Figure S3. From left to right P11-12, P11-12:PEG (Mw 10k), P11-12:PEG (Mw 100k). 130 mM NaCl in D2O, PEG added at same wt% as 1:10
Pep:GAG ratio. All samples = liquid

[2] = Transmission electron microscopy of peptide and peptide:GAG aggregates; conditions: TEM, uranyl acetate negative stain; for Twist pitch: peptide alone, 130 mM NaCl in D2O
Source text: We observe that incorporation of GAGs into peptide hydrogels also modifies their microscopic properties. Transmission electron microscopy images reveal pronounced differences in the fibril morphologies (Fig. 3a and Fig. S2, S3, ESI ^‡). Broadly speaking, the changes in gel structure between peptide-only and peptide:GAG gels are very similar. In peptide-only gels, the fibril widths are of the order of 10 nm. This compares to peptide:GAG gels where the fibrils align and cluster together with bundle diameters of the order of 100 nm. […] Transmission electron microscopy of uranyl acetate stained samples were carried out on a Philips CM10/Jeol JEM1400 electron microscope operating at 80/120 kV. Fourier transform infra-red spectra were acquired with a Thermo Scientific Nicolet 6700 FTIR spectrometer. […] TFA has a FTIR band located at 1673 cm-1 and peptides with greater number of arginine and ornithine residues will contain more TFA and therefore a large TFA peak in the FTIR spectra. Transmission electron microscopy, TEM P11-9 and P11-9:GAG samples were prepared in DPBS (Dubeccos phosphate buffered saline, Sigma Aldrich), solution containing 0.04% NaN3, (Sodium azide, Sigma Aldrich, 99%)to prevent bacterial growth. The samples were vortexed for 20 seconds, and then sonicated for 30 minutes. Solution pH was measured and adjusted to 7.4 ± 0.3. Any adjustment of pH, if necessary, was made with μL volumes of 0.1 to 1 mol dm-3 HCL (Hydrochloric acid, Fisher Scientific, analytical reagent grade, 37% wt diluted with purified water), and/or 0.1 to 1 mol dm-3 NaOH (Sodium hydroxide pellets, Fisher […], analytical grade, dissolved in and diluted with purified water). Solution vials were closed, sealed with PTFE tape, and then warmed to approximately 80 °C to maximise peptide solubility. Following warming GAG powder was added to the peptide solutions and the mixture was vortexed to ensure complete mixing The resulting gels were left to equilibrate for approximately four and a half months. For P11-4, P11-8 and P11-12, samples with and without GAG prepared for FTIR were used, these were left to equillibriate for 4 days prior to TEM grid preparation. The gels were then diluted (20 μl of sample in 60 μl D2O) minutes prior to addition to the TEM grids. Glow discharged carbon film coated copper TEM grids (Agar Scientific) were touched onto the peptide and peptide:gag solutions for one minute. The grid was air-dried and then negatively stained with uranyl acetate solution (2% w/v) for 20 seconds and air-dried. TEM images for P11-4, P11-8 and P11-12, samples with and without GAG were obtained using a Jeol JEM1400 transmission electron microscope operating […] voltage. TEM images of […] with and without GAG were obtained using a Philips CM10 electron microscope operating at 80 kV accelerating voltage. Rheometry Peptide and peptide:GAG samples were prepared in DPBS (Dubeccos phosphate buffered saline, Sigma Aldrich), solution containing 0.04% NaN3 (sodium azide, Sigma Aldrich, 99%). The samples were vortexed for 20 seconds, and then sonicated for 30 minutes. Solution pH was measured and adjusted to 7.4 ± 0.3. Any adjustment of pH, if necessary, was made with μL volumes of 0.1 to 1 mol dm-3 HCL (hydrochloric acid, Fisher Scientific, analytical reagent grade, 37% wt diluted with purified water), and/or 0.1 to 1 mol dm-3 NaOH (Sodium hydroxide pellets, Fisher […], analytical grade, dissolved in and diluted with purified water). Solution vials were closed, sealed with PTFE tape, and then warmed to approximately 80 °C to maximise peptide solubility. Following warming GAG powder was added to the peptide solutions and the mixture was vortexed to ensure complete mixing The resulting gels were left to equilibrate at room temperature (P11-4 20 days, P11-8 1.5 months, P11-9 one month and P11-12 two months). Rheometry measurements used a Malvern Kinexus Pro rheometer with a cone-plate geometry (cone angle: 1O, diameter: 50 mm, gap: 0.033 mm). […]

[3] = 1H NMR of free peptide monomer concentration (apparent critical aggregation concentration c*, equilibration); conditions: 1H NMR aromatic region integral relative to TMSP, 130 mM NaCl in D2O, pD 7.4, room temperature
Protocol: NMR characterisation of the free peptide monomer concentration that coexists in equilibrium with the peptide fibrils (and therefore the apparent c*) is found to decrease in the presence of GAG (Fig. 2a and Fig. S1a, ESI ^‡).
The thermodynamics are affected by the presence of GAG.
^1H Nuclear Magnetic Resonance spectra were recorded on a Bruker DPX300 300 MHz spectrometer. Transmission electron microscopy of uranyl acetate stained samples were carried out on a Philips CM10/Jeol JEM1400 electron microscope operating at 80/120 kV. Fourier transform infra-red spectra were acquired with a Thermo Scientific Nicolet 6700 FTIR spectrometer. Rheological measurements used a Malvern Kinexus Pro rheometer with a cone-plate geometry. […]
Peptide and peptide:GAG samples were prepared directly in D2O (Deuterium Oxide, Sigma Aldrich 99.9% D) containing 130 mM NaCl (Sodium Chloride, Fisher Scientific, analytical grade) and […] TMSP (deuterated Sodium 3-(trimethylsilyl)propionate-2,2,3,3-d4, Cambridge Isoptope Labortatories, chemical shift 0 ppm) an internal reference standard. […] Solution pD was measured and adjusted to 7.4 ± 0.3 using the relation pD = pH + 0.4.[1] […]
NMR data were acquired at room temperature with a Bruker DPX 300 spectrometer, operating at 300 MHz (5 mm probe, spectral width 5995 Hz). A presaturation program was used to minimize the water peak, and 1024 scans were measured per spectrum. […]

[4] = Control (peptide only, no GAG), visually observed, room temperature
[5] = peptide : GAG ratio 1:2, visually observed, room temperature
[6] = peptide : GAG ratio 1:10, visually observed, room temperature
[7] = peptide alone or peptide:GAG 1:10
[8] = peptide alone or peptide:GAG 1:10, 20 mg/ml, 130 mM NaCl in D2O (P11-9 samples in DPBS)

| Time to gel [1, 4] | Time to gel [1, 5] | Time to gel [1, 6] | Morphology [2, 7] | Ribbon width [2, 8] [nm] | Fibril width [2, 8] [nm] | Twist pitch ([2]; 20 mg/ml) [nm] | Physical state of sample (gel or liquid) ([1]; 130 mM NaCl in D2O, PEG added at same wt% as 1:10 Pep:GAG ratio) | Time to gel ([1]; peptide : GAG ratio 1:50, visually observed, room temperature) | Time to gel ([1]; peptide : GAG ratio 1:100, visually observed, room temperature) | Gelation time ([1]; when higher GAG ratios were used, visually observed, room temperature) | Time for the monomer concentration to equilibrate ([3]; GAG present at peptide : GAG ratio of 1 : 5) | Time for the monomer concentration to equilibrate ([3]; peptide only) | Large loose bundle /fibre width [2, 8] [nm] | Substance |
| --- | --- | --- | --- | --- | --- | --- | --- | --- | --- | --- | --- | --- | --- | --- |
| Minutes | Seconds | Seconds | Ribbons | 4 ± 1 |  |  |  |  |  |  |  |  |  | Ac-SSRFEWEFESS-NH2 [P11-9] |
| Minutes -hours | Seconds-minutes | Seconds | Twisted fibrils |  | 14.6 | 76.6 ± 17.1 |  |  |  |  |  |  |  | Ac-QQRFEWEFEQQ-NH2 [P11-4] |
| Minutes | Seconds | Seconds | Twisted fibrils and ribbons | 5.0 ± 0.8 | 10.1 | 114.3 ± 10.3 | liquid | Spontaneous | Spontaneous | instantaneously | less than a week | within two months | 43.7 ± 11.5 | CH3CO-S-S-R-F-O-W-O-F-E-S-S-NH2 [P11-12] |
| days | seconds | Seconds | Twisted fibrils | 5.06 | 13.2 | 135.2 ± 22.1 |  |  |  |  |  |  |  | CH3CO-Q-Q-R-F-O-W-O-F-E-Q-Q-NH2 [P11-8] |
